Data reported in US20170304815A1, “Antimicrobial And Biological Active Polymer Composites And Related Methods, Materials and Devices” (IASIS MOLECULAR SCIENCES, priority 2014, published 2017).

Tests used:
[1] = Thermogravimetric analysis, thermal stability; assay type: physicochemical; details: simple salt
Protocol: Amberlite IRP69 strong cation-exchange material was stirred in a minimal amount of deionized water and an excess (˜10-500 molar excess) silver nitrate was added and the mixture stirred by the addition of a mechanical stirrer for 60 minutes. […] The modified IRP69 was dried under vacuum at 130° C. and the material was milled with an IKA homogenizer and the resulting particles were put through a sieve with a 35 μm cutoff. The powder was dried under vacuum and used for incorporation within various polymer composite mixtures.
Thermal stability of a benzalkonium salt of IRP69 (IRP69-benzalkonium) was measured and compared to thermal stability of benzalkonium chloride (simple salt). […] (close to the optimal processing temperature polyethylene terephthalate), unexpectedly providing for stable incorporation of the subject biologically active materials within composites useful to create fibers, threads, woven textiles and fabrics incorporating these thermally demanding materials.

[2] = unbound molecule; cited from earlier work

| Compound | begins to decompose at (thermogravimetric profile) [1] | susceptible to thermal degradation to p-chloroaniline above [2] |
| --- | --- | --- |
| benzalkonium chloride | about 200 °C |  |
| [H]/N=C(\N/C(=N/[H])NCCCCCCNC(=N)NC(=N)Nc1ccc(Cl)cc1)Nc1ccc(Cl)cc1 [Chlorhexidine] |  | above 70 °C |
